In patent US20240391931A1 (Bristol-Myers Squibb Company, priority 2021, published 2024):

Biological target: HER2YVMA (Homo sapiens, UniProt P04626, INS775YVMA)
Experiment: HER2 signaling (pHER2) in Hek293-HER2YVMA cells
Format: cell-based
Design: expressed in transfected cells; host or cells: HEK293 (pool), Ba/F3 (clones), BEAS2B (clones); lentiviral vector pCDH-CMV-MCS-EF1-Neo
Conditions: 1.5 hr compound, 1% FBS, read-out: HEKYVMA pHER2 EC50
Outline: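 Lentivirally transduced HER2YVMA lines (HEK293 pool; BEAS2B clone) treated 1.5 h at 37 °C in 1% FBS medium with compound at 0.0005–1.1 μM. Lysates read by MSD immunoassay for pHER2 (Tyr1248) normalized to total HER2, as % DMSO control; EC50 from variable-slope sigmoidal fit.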

Sequence of HER2YVMA (P04626 with tags, fused parts or gaps INS775YVMA): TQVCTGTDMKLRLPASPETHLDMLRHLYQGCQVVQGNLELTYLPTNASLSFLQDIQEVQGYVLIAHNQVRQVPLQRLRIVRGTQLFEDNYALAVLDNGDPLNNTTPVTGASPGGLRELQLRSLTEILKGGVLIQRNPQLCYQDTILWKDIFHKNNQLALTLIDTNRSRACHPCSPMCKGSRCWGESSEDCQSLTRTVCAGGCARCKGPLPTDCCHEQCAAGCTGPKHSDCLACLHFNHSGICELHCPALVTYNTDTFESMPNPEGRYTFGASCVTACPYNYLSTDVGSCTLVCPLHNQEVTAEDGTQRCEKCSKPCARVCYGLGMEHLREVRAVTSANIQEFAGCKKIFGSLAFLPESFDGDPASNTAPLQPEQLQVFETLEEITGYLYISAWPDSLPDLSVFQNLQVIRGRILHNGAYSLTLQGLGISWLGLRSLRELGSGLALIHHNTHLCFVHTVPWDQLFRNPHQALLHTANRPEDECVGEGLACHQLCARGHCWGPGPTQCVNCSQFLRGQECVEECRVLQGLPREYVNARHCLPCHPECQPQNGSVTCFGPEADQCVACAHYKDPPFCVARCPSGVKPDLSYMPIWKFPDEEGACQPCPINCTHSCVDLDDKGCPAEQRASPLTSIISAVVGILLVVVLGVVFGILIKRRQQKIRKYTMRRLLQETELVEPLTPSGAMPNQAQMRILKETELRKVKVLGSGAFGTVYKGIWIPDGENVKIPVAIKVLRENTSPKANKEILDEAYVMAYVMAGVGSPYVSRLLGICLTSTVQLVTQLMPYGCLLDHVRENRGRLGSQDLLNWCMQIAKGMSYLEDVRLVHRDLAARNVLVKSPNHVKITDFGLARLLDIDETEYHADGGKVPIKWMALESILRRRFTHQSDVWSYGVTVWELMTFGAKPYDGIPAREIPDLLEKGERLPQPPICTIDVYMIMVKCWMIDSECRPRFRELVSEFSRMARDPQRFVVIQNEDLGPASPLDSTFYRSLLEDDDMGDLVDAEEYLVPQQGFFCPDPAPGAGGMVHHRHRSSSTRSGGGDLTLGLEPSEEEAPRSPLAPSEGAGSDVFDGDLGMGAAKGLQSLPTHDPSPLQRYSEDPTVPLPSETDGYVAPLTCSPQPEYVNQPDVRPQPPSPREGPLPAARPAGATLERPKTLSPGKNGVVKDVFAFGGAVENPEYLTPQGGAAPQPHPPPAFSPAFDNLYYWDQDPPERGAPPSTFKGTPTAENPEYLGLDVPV

SMILES	EC50 [nM]
Cc1cc(Nc2ncnc3sc4c(c23)CCN(C(=O)/C=C/CN(C)C)C4)ccc1Oc1ccc2ncnn2c1 [Compound 3, (E)-1-(4-((4-([1,2,4]triazolo[1,5-a]pyridin-6-yloxy)-3-methylphenyl)amino)-5,8-dihydropyrido[4′,3′:4,5]thieno[2,3-d]pyrimidin-7(6H)-yl)-4-(dimethylamino)but-2-en-1-one]	100 to 350
C=CC(=O)N1CCc2c(sc3ncnc(Nc4ccc(Oc5ccc6ncnn6c5)c(Cl)c4)c23)C1 [Compound 4, 1-(4-((4-([1,2,4]triazolo[1,5-a]pyridin-6-yloxy)-3-chlorophenyl)amino)-5,8-dihydropyrido[4′,3′:4,5]thieno[2,3-d]pyrimidin-7(6H)-yl)prop-2-en-1-one]	< 100
Cc1cc(Nc2ncnc3sc4c(c23)CCN(C(=O)/C=C/CN2CC3CCC(C3)C2)C4)ccc1Oc1ccc2ncnn2c1 [Compound 20]	< 100
Cc1ncc(Oc2ccc(Nc3ncnc4sc5c(c34)CCN(C(=O)/C=C/CN(C)C)C5)cc2C)cn1 [Compound 21, (E)-4-(dimethylamino)-1-(4-((3-methyl-4-((2-methylpyrimidin-5-yl)oxy)phenyl)amino)-5,8-dihydropyrido[4′,3′:4,5]thieno[2,3-d]pyrimidin-7(6H)-yl)but-2-en-1-one]	< 100
Cc1cc(Nc2ncnc3sc4c(c23)CCN(C(=O)/C=C/CN(C)C)C4)ccc1Oc1ccc2[nH]ncc2c1 [Compound 22, (E)-1-(4-((4-((1H-indazol-5-yl)oxy)-3-methylphenyl)amino)-5,8-dihydropyrido[4′,3′:4,5]thieno[2,3-d]pyrimidin-7(6H)-yl)-4-(dimethylamino)but-2-en-1-one]	< 100
Cc1cc(Nc2ncnc3sc4c(c23)CCN(C(=O)/C=C/CN(C)C)C4)ccc1Oc1ccc2cn[nH]c2c1 [Compound 23, (E)-1-(4-((4-((1H-indazol-6-yl)oxy)-3-methylphenyl)amino)-5,8-dihydropyrido[4′,3′:4,5]thieno[2,3-d]pyrimidin-7(6H)-yl)-4-(dimethylamino)but-2-en-1-one]	< 100
Cc1ccc(Oc2ccc(Nc3ncnc4sc5c(c34)CCN(C(=O)/C=C/CN3CC4CC3CO4)C5)cc2C)cn1 (stereo not drawn) [Compound 26]	< 100
Cc1ccc(Oc2ccc(Nc3ncnc4sc5c(c34)CCN(C(=O)/C=C/CN(CCO)CCO)C5)cc2C)cn1 [Compound 37]	100 to 350
Cc1ccc(Oc2ccc(Nc3ncnc4sc5c(c34)CCN(C(=O)/C=C/CNC3COC3)C5)cc2C)cn1 [Compound 38]	< 100
CNC(=O)CNC/C=C/C(=O)N1CCc2c(sc3ncnc(Nc4ccc(Oc5ccc(C)nc5)c(C)c4)c23)C1 [Compound 39]	100 to 350
Cc1ccc(Oc2ccc(Nc3ncnc4sc5c(c34)CCN(C(=O)/C=C/CNC3CC3)C5)cc2C)cn1 [Compound 40]	< 100
Cc1ccc(Oc2ccc(Nc3ncnc4sc5c(c34)CCN(C(=O)/C=C/CN3CCCC3C(N)=O)C5)cc2C)cn1 (stereo not drawn) [Compound 41]	< 100
Cc1ccc(Oc2ccc(Nc3ncnc4sc5c(c34)CCN(C(=O)/C=C/CN3CCCOCC3)C5)cc2C)cn1 [Compound 42]	< 100
Cc1ccc(Oc2ccc(Nc3ncnc4sc5c(c34)CCN(C(=O)/C=C/CN3CC(O)CO3)C5)cc2C)cn1 (stereo not drawn) [Compound 43]	350 to 1000
Cc1ccc(Oc2ccc(Nc3ncnc4sc5c(c34)CCN(C(=O)/C=C/CN3C4CCC3CC4)C5)cc2C)cn1 [Compound 44]	< 100
Cc1ccc(Oc2ccc(Nc3ncnc4sc5c(c34)CCN(C(=O)/C=C/CNCCS(C)(=O)=O)C5)cc2C)cn1 [Compound 45]	< 100
CCN1CCN(C/C=C/C(=O)N2CCc3c(sc4ncnc(Nc5ccc(Oc6ccc(C)nc6)c(C)c5)c34)C2)CC1 [Compound 46]	< 100
Cc1ccc(Oc2ccc(Nc3ncnc4sc5c(c34)CCN(C(=O)/C=C/CNC3CCOC3)C5)cc2C)cn1 (stereo not drawn) [Compound 47]	< 100
Cc1ccc(Oc2ccc(Nc3ncnc4sc5c(c34)CCN(C(=O)/C=C/CNCC3CN(C)CCO3)C5)cc2C)cn1 (stereo not drawn) [Compound 48]	< 100
Cc1ccc(Oc2ccc(Nc3ncnc4sc5c(c34)CCN(C(=O)/C=C/CNCc3cc(C)n[nH]3)C5)cc2C)cn1 [Compound 49]	< 100

SMILES	EC50 [nM]
CC(=O)N1CCN(C/C=C/C(=O)N2CCc3c(sc4ncnc(Nc5ccc(Oc6ccc(C)nc6)c(C)c5)c34)C2)CC1 [Compound 51]	100 to 350
Cc1ccc(Oc2ccc(Nc3ncnc4sc5c(c34)CCN(C(=O)/C=C/CNCc3ccsc3)C5)cc2C)cn1 [Compound 52]	< 100
Cc1ccc(Oc2ccc(Nc3ncnc4sc5c(c34)CCN(C(=O)/C=C/CN3CC(O)C3)C5)cc2C)cn1 [Compound 53]	100 to 350
Cc1ccc(Oc2ccc(Nc3ncnc4sc5c(c34)CCN(C(=O)/C=C/CNC3CCC3)C5)cc2C)cn1 [Compound 54]	< 100
Cc1ccc(Oc2ccc(Nc3ncnc4sc5c(c34)CCN(C(=O)/C=C/CN3CC=CCC3)C5)cc2C)cn1 [Compound 55]	< 100
CON(C)C/C=C/C(=O)N1CCc2c(sc3ncnc(Nc4ccc(Oc5ccc(C)nc5)c(C)c4)c23)C1 [Compound 56]	350 to 1000
Cc1ccc(Oc2ccc(Nc3ncnc4sc5c(c34)CCN(C(=O)/C=C/CN3CC4(C3)CS(=O)(=O)C4)C5)cc2C)cn1 [Compound 57]	< 100
Cc1ccc(Oc2ccc(Nc3ncnc4sc5c(c34)CCN(C(=O)/C=C/CN3CCN4C(=O)CCC4C3)C5)cc2C)cn1 (stereo not drawn) [Compound 58]	350 to 1000
COCCN1CCN(C/C=C/C(=O)N2CCc3c(sc4ncnc(Nc5ccc(Oc6ccc(C)nc6)c(C)c5)c34)C2)CC1 [Compound 59]	< 100
Cc1ccc(Oc2ccc(Nc3ncnc4sc5c(c34)CCN(C(=O)/C=C/CN3CCn4cc(C(F)(F)F)nc4C3)C5)cc2C)cn1 [Compound 61]	350 to 1000
Cc1ccc(Oc2ccc(Nc3ncnc4sc5c(c34)CCN(C(=O)/C=C/CN3CCC(n4ccnc4)CC3)C5)cc2C)cn1 [Compound 62]	100 to 350
Cc1cc(Nc2ncnc3sc4c(c23)CCN(C(=O)/C=C/CN(C)C)C4)ccc1Oc1cccc(B(O)O)c1 [Compound 64, (E)-(3-(4-((7-(4-(dimethylamino)but-2-enoyl)-5,6,7,8-tetrahydropyrido[4′,3′:4,5]thieno[2,3-d]pyrimidin-4-yl)amino)-2-methylphenoxy)phenyl)boronic acid]	< 100
Cc1ccc(Oc2ccc(Nc3ncnc4sc5c(c34)CCN(C(=O)/C=C/CNCCO)C5)cc2C)cn1 [Compound 65]	< 100
Cc1ccc(Oc2ccc(Nc3ncnc4sc5c(c34)CCN(C(=O)/C=C/CN3C[C@H]4CC[C@@H](C3)O4)C5)cc2C)cn1 [Compound 66]	< 100
Cc1ccc(Oc2ccc(Nc3ncnc4sc5c(c34)CCN(C(=O)/C=C/CN3CCC4(CCOC4)C3)C5)cc2C)cn1 (stereo not drawn) [Compound 67]	< 100
Cc1ccc(Oc2ccc(Nc3ncnc4sc5c(c34)CCN(C(=O)/C=C/CN[C@H]3CC[C@H](OC4CC4)CC3)C5)cc2C)cn1 [Compound 68]	< 100
Cc1ccc(Oc2ccc(Nc3ncnc4sc5c(c34)CCN(C(=O)/C=C/CN[C@H]3CC[C@H](OC(F)F)CC3)C5)cc2C)cn1 [Compound 69]	< 100
Cc1ccc(Oc2ccc(Nc3ncnc4sc5c(c34)CCN(C(=O)/C=C/CN[C@H]3CC[C@H](OCC(F)(F)F)CC3)C5)cc2C)cn1 [Compound 70]	< 100
Cc1ccc(Oc2ccc(Nc3ncnc4sc5c(c34)CCN(C(=O)/C=C/CNC3CCC(C(=O)N(C)C)CC3)C5)cc2C)cn1 (stereo not drawn) [Compound 71]	< 100
